Measured values: patent US20240376094A2, “SELECTIVE BCL-XL PROTAC COMPOUNDS AND METHODS OF USE” (Les Laboratoires Servier, priority 2021, published 2024)

Tests used:
Type in all cases: cell-based
NCI-H1650 = experiment: CellTiter-Glo 3D proliferation assay, NCI-H1650 spheroids; conditions: Homo sapiens, NCI-H1650, 120 h, 5 days; for Emax: read-out: NCI-H1650 Span (Amax)
In short: (§1)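 Both lines grown in RPMI-1640 + 10% FBS. COR-L105 plated flat at 1,000 cells/well overnight; NCI-H1650 grown as spheroids, 3,000 cells/well, 72 h. Compounds at 0.508 nM-10 μM final for 5 days, 37° C. ATP read by CellTiter-Glo (3D version for spheroids); IC50 from variable-slope fit normalized to untreated cells.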

COR-L105 = experiment: CellTiter-Glo proliferation assay, COR-L105; conditions: Homo sapiens, COR-L105, 120 h, COR-L105, 5 days; for Emax: read-out: COR-L105 Span (max)
In short: as §1

endogenous BCL-xL = biological target: T1, endogenous BCL-xL (Homo sapiens, UniProt Q07817); experiment: Degradation of endogenous BCL-xL in COR-L105 (ProteinSimple Jess); conditions: COR-L105, 24 h, COR-L105, dose 300 nM, read-out: % BCL-xL vs. Untreated, COR-L105
T1 construct: endogenous in cells; host or cells: COR-L105 (ECACC No. 92031918); NCI-H1650 (ATCC No. CRL-5883)
T1 sequence (Q07817 whole entry): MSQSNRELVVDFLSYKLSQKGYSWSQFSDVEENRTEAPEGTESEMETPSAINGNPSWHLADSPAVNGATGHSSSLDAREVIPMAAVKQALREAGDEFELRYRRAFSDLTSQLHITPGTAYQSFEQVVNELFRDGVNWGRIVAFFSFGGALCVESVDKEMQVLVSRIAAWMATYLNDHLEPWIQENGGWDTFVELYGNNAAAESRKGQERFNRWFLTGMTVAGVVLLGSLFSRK
Protocol: The BCL-xL degrader low molecular weight compounds were tested against two endogenous cancer cell lines: • COR-L105: ECACC No. 92031918 cultured in RPMI-1640+10% FBS • NCI-H1650: (ATCC No. CRL-5883 cultured in RPMI-1640+10% FBS
The ability of the BCL-xL degrader low molecular weight compounds to degrade endogenous BCL-xL was assessed using the ProteinSimple 2-40 kDa Jess Separation Module.
Cell lines were cultured in media that is optimal for their growth at 5% CO2, 37° C. in a tissue culture incubator. Prior to seeding for the degradation assay, the cells were split at least 2 days before the assay to ensure optimal growth density. On the day of seeding, adherent cells were lifted off tissue culture flasks using 0.25% trypsin. Cell viability and cell density were determined using a cell counter (Vi-Cell XR Cell Viability Analyzer, Beckman Coulter). Cells with higher than 85% viability were seeded for the assay.
The COR-L105 and the NCI-H1650 cell line were seeded in 6-well clear TC-treated multiple well plates (Costar® cat. #3516). Cells were seeded at a density of 2,000,000 cells per well in 2.5 mL of standard growth media. Plates were incubated at 5% CO2, 37° C. overnight in a tissue culture incubator. On the day of dosing, BCL-xL degrader low molecular weight compounds and a BCL-xL inhibitor control were prepared at 6× in standard growth media. The prepared drug treatments were then added to the cells resulting in a final concentration of 100-300 nM and a final volume of 3.0 mL per well. A control well of untreated cells was also included in the study. Each drug concentration was tested in singlet. Plates were incubated at 5% CO2, 37° C. for 24 hours in a tissue culture incubator.
After 24 hours, the adherent cells were lifted off tissue culture plates using 0.25% trypsin. Standard growth media was added to quench the trypsin and centrifuged for 5 minutes at 1500 rpm. Cell pellets were washed once with cold PBS and centrifuged for 5 minutes at 1500 rpm. Cells were then washed with 1 mL cold PBS and transferred to a 1.5 mL eppendorf tube. Cells were centrifuged for 10 minutes at ≥10,000 g at 4° C. in a benchtop mini-centrifuge. The entire supernatant was discarded and cells were resuspended thoroughly in 50 μL of RIPA lysis buffer, generated by the manufacturer's protocol (ProteinSimple, Cat. #CBS401: Lysis Kit—RIPA Buffer for Charge Assays). Lysates were incubated on ice for 30 minutes. Following incubation, lysates were spun in a benchtop mini-centrifuge for 15 minutes at full speed at 4° C. Supernatant was carefully transferred to a new eppendorf tube for downstream analysis.
Protein was quantified using a Pierce™ BCA Protein Assay Kit (ThermoFisher, cat #23225) following the manufacturer's instructions. A standard curve was prepared by adding 25 μL of each concentration of reference samples from a Pierce™ Bovine Serum Albumin Standard Pre-Diluted Set (ThermoFisher, cat #23208). Each reference sample was run in duplicate. Testing samples were prepared by diluting cell lysates 1:5 in UltraPure™ DNase/RNase-Free Distilled Water and tested in duplicates of 25 μL each. The BCA working reagent was prepared by addition of 50 parts of BCA Reagent A with 1 part of BCA Reagent B. For each testing well, 200 μL of BCA working reagent was added. The plate was incubated at 37° C. for 30 minutes. A SpectraMax M Series Multi-Mode Microplate Reader was used to measure the absorbance at 562 nm. A standard curve generated by the Pierce™ Bovine Serum Albumin Standard Pre-Diluted Set was used to normalize and calculate the BCA concentration of cell lysates. Only values that fell within the range of the standard curve were accepted for quantification.
The ProteinSimple 2-40 kDa Jess Separation Module was used to detect BCL-xL degradation in treated versus untreated lysates following the manufacturer's instructions (25-Capillary Cartridge, 8 pack, 2-40 kDa, cat #SM W012). […]

| IC50 (NCI-H1650) | remaining activity at 0.3 µM (endogenous BCL-xL) | Compound | Emax (NCI-H1650) | IC50 (COR-L105) | Emax (COR-L105) |
| --- | --- | --- | --- | --- | --- |
| 0.0397 µM | 82.4% | Cc1ncsc1-c1ccc([C@H](C)NC(=O)[C@@H]2C[C@@H](O)CN2C(=O)[C@@H](NC(=O)CSCC(=O)N2CCN(CC#Cc3ccc(OCCCc4sc(N5CCCc6c5nnc(Nc5nc7ccccc7s5)c6C)nc4C(=O)O)c(F)c3)CC2)C(C)(C)C)cc1 [Example 37, 2-(3-(benzo[d]thiazol-2-ylamino)-4-methyl-6,7-dihydropyrido [2,3-c]pyridazin-8(5H)-yl)-5-(3-(2-fluoro-4-(3-(4-(2-((2-(((S)-1-((2S,4R)-4-hydroxy-2-(((S)-1-(4-(4-methylthiazol-5-yl)phenyl)ethyl)carbamoyl)pyrrolidin-1-yl)-3,3-dimethyl-1-oxobutan-2-yl)amino)-2-oxoethyl)thio)acetyl)piperazin-1-yl)prop-1-yn-1-yl)phenoxy)propyl)thiazole-4-carboxylic acid] | 107% | 0.623 µM | 88.5% |
| 0.00815 µM | 22.1% | Cc1ncsc1-c1ccc([C@H](C)NC(=O)[C@@H]2C[C@@H](O)CN2C(=O)[C@@H](NC(=O)CCCCCCCC(=O)N2CCN(CC#Cc3ccc(OCCCc4sc(N5CCCc6c5nnc(Nc5nc7ccccc7s5)c6C)nc4C(=O)O)c(F)c3)CC2)C(C)(C)C)cc1 [Example 38, 2-(3-(benzo[d]thiazol-2-ylamino)-4-methyl-6,7-dihydropyrido [2,3-c]pyridazin-8(5H)-yl)-5-(3-(2-fluoro-4-(3-(4-(9-(((S)-1-((2S,4R)-4-hydroxy-2-(((S)-1-(4-(4-methylthiazol-5-yl)phenyl)ethyl)carbamoyl)pyrrolidin-1-yl)-3,3-dimethyl-1-oxobutan-2-yl)amino)-9-oxononanoyl)piperazin-1-yl)prop-1-yn-1-yl)phenoxy)propyl)thiazole-4-carboxylic acid] | 87.9% | 0.0831 µM | 87.4% |
| 0.0384 µM | 63.6% | Cc1ncsc1-c1ccc([C@H](C)NC(=O)[C@@H]2C[C@@H](O)CN2C(=O)[C@@H](NC(=O)CC2(CC(=O)N3CCN(CC#Cc4ccc(OCCCc5sc(N6CCCc7c6nnc(Nc6nc8ccccc8s6)c7C)nc5C(=O)O)c(F)c4)CC3)CCCC2)C(C)(C)C)cc1 [Example 39, 2-(3-(benzo[d]thiazol-2-ylamino)-4-methyl-6,7-dihydropyrido [2,3-c]pyridazin-8(5H)-yl)-5-(3-(2-fluoro-4-(3-(4-(2-(1-(2-(((S)-1-((2S,4R)-4-hydroxy-2-(((S)-1-(4-(4-methylthiazol-5-yl)phenyl)ethyl)carbamoyl)pyrrolidin-1-yl)-3,3-dimethyl-1-oxobutan-2-yl)amino)-2-oxoethyl)cyclopentyl)acetyl)piperazin-1-yl)prop-1-yn-1-yl)phenoxy)propyl) thiazole-4-carboxylic acid] | 96.4% | 0.524 µM | 95.3% |
| 0.0156 µM | 71.4% | Cc1ncsc1-c1ccc(CNC(=O)[C@@H]2C[C@@H](O)CN2C(=O)[C@@H](NC(=O)COCCOCCOCC(=O)N2CCN(CC#Cc3ccc(OCCCc4sc(N5CCCc6c5nnc(Nc5nc7ccccc7s5)c6C)nc4C(=O)O)c(F)c3)CC2)C(C)(C)C)cc1 [Example 40, 2-(3-(benzo[d]thiazol-2-ylamino)-4-methyl-6,7-dihydropyrido [2,3-c]pyridazin-8(5H)-yl)-5-(3-(2-fluoro-4-(3-(4-((S)-13-((2S,4R)-4-hydroxy-2-((4-(4-methylthiazol-5-yl)benzyl)carbamoyl)pyrrolidine-1-carbonyl)-14,14-dimethyl-11-oxo-3,6,9-trioxa-12-azapentadecanoyl)piperazin-1-yl)prop-1-yn-1-yl)phenoxy)propyl)thiazole-4-carboxylic acid] | 87.3% | 0.107 µM | 82.1% |
| 0.00883 µM | 30.3% | Cc1ncsc1-c1ccc([C@H](C)NC(=O)[C@@H]2C[C@@H](O)CN2C(=O)[C@@H](NC(=O)C2CC3(C2)CC(C(=O)N2CCN(CC#Cc4ccc(OCCCc5sc(N6CCCc7c6nnc(Nc6nc8ccccc8s6)c7C)nc5C(=O)O)c(F)c4)CC2)C3)C(C)(C)C)cc1 (stereo partly drawn) [Example 41, 2-(3-(benzo[d]thiazol-2-ylamino)-4-methyl-6,7-dihydropyrido [2,3-c]pyridazin-8(5H)-yl)-5-(3-(2-fluoro-4-(3-(4-(6-(((S)-1-((2S,4R)-4-hydroxy-2-(((S)-1-(4-(4-methylthiazol-5-yl)phenyl)ethyl)carbamoyl)pyrrolidin-1-yl)-3,3-dimethyl-1-oxobutan-2-yl)carbamoyl)spiro[3.3]heptane-2-carbonyl)piperazin-1-yl)prop-1-yn-1-yl)phenoxy)propyl) thiazole-4-carboxylic acid] | 106% | 0.22 µM | 88.2% |
| 0.00422 µM | 19.9% | Cc1ncsc1-c1ccc([C@H](C)NC(=O)[C@@H]2C[C@@H](O)CN2C(=O)[C@@H](NC(=O)c2ccc(C(=O)N3CCN(CC#Cc4ccc(OCCCc5sc(N6CCCc7c6nnc(Nc6nc8ccccc8s6)c7C)nc5C(=O)O)c(F)c4)CC3)cc2F)C(C)(C)C)cc1 [Example 43, 2-(3-(benzo[d]thiazol-2-ylamino)-4-methyl-6,7-dihydropyrido [2,3-c]pyridazin-8(5H)-yl)-5-(3-(2-fluoro-4-(3-(4-(3-fluoro-4-(((S)-1-((2S,4R)-4-hydroxy-2-(((S)-1-(4-(4-methylthiazol-5-yl)phenyl)ethyl)carbamoyl)pyrrolidin-1-yl)-3,3-dimethyl-1-oxobutan-2-yl)carbamoyl)benzoyl)piperazin-1-yl)prop-1-yn-1-yl)phenoxy)propyl)thiazole-4-carboxylic acid] | 80.3% | 0.0748 µM | 85.9% |
| 0.00627 µM | 40.1% | Cc1ncsc1-c1ccc(CNC(=O)[C@@H]2C[C@@H](O)CN2C(=O)[C@@H](NC(=O)CCCCCCCCCCC(=O)N2CCN(CC#Cc3ccc(OCCCc4sc(N5CCCc6c5nnc(Nc5nc7ccccc7s5)c6C)nc4C(=O)O)c(F)c3)CC2)C(C)(C)C)c(O)c1 [Example 45, 2-(3-(benzo[d]thiazol-2-ylamino)-4-methyl-6,7-dihydropyrido [2,3-c]pyridazin-8(5H)-yl)-5-(3-(2-fluoro-4-(3-(4-(12-(((S)-1-((2S,4R)-4-hydroxy-2-((2-hydroxy-4-(4-methylthiazol-5-yl)benzyl)carbamoyl)pyrrolidin-1-yl)-3,3-dimethyl-1-oxobutan-2-yl)amino)-12-oxododecanoyl)piperazin-1-yl)prop-1-yn-1-yl)phenoxy)propyl)thiazole-4-carboxylic acid] | 81.2% | 0.0683 µM | 83% |
